Test results: patent US20260347372A1, “SMALL MOLECULE INHIBITORS OF KRAS G12D MUTANT” (MERCK SHARP & DOHME LLC, priority 2023, published 2026)
pIC50: −log10 of the molar value.

Tests used:
KRAS G12D = KRAS G12D (Homo sapiens, UniProt P01116, G12D); assay: SOS-catalyzed nucleotide exchange assay, KRAS G12D (Procedure A); format: biochemical; details: guanine nucleotide exchange (GNE)
From the text: (§1) Procedure for SOS-Catalyzed Nucleotide Exchange Assay for KRAS-WT, G12C/D/V, G13D, HRAS, and NRAS (Procedure A)
(§2) Recombinant KRAS-G12C protein used in this assay has an additional triple mutation (C51S/C80L/C118S). Whereas KRAS-WT, G12D/V, G13D, HRAS and NRAS are in context of their WT protein sequence background. Specifically, the SOS-catalyzed nucleotide exchange assay utilizes a preformed TR-FRET complex containing a specific biotinylated RAS protein (KRAS-WT, G12C/V/D, G13D, HRAS, NRAS; described above) with Bodipy-GDP, and Terbium-streptavidin. Compounds are preincubated with this complex for 60 minutes. Subsequently, recombinant human SOS protein and unlabeled GTP are added to initiate the exchange reaction. Small molecule inhibitors stabilize the Bodipy-GDP complex whereas the untreated protein rapidly exchanges Bodipy-GDP for unlabeled GTP resulting in reduced TR-FRET signal.
(§3) To assemble the preformed TR-FRET complexes, each biotinylated RAS protein is diluted to 2 μM in an EDTA Buffer (20 mM HEPES pH 7.5, 50 mM sodium chloride, 10 mM EDTA, and 0.01% Tween) and incubated at room temperature for one hour. This mixture is then further diluted to 90 nM in an Assay Buffer (20 mM HEPES pH 7.5, 150 mM sodium chloride, 10 mM magnesium chloride, and 0.005% Tween) containing 15 nM of Terbium-Streptavidin (Invitrogen, catalog #PV3577) and 900 nM of Bodipy-GDP (Invitrogen, catalog #G22360) and incubated at room temperature for six hours. It should be noted that this preformed TR-FRET complex for each of the RAS protein were made ahead of time, aliquoted and stored at −80° C. until the day of the experiment.
(§4) Each test compound (10 mM stock in DMSO) is diluted in DMSO to make a final-10-point, 3-fold dilution and is acoustically dispensed into a 384-well assay plate (Corning, catalog #3820) using an Echo 550 (Labcyte). Each well of the assay plate receives 3 μL of a specific 3×RAS preformed TR-FRET complex and 3 μL of Assay Buffer and is incubated at room temperature for 60 minutes (preincubation time). Each well then receives 3 μL of 3× recombinant human SOS protein and GTP (Sigma, G8877) in Assay Buffer and is incubated at room temperature for 30 minutes (G13D), 60 minutes (KRAS WT/G12C/D, H/NRAS) or 90 minutes for G12V. The final reaction in each well of 9 μL consists of 3 mM GTP, specific Ras and SOS proteins in the following concentrations: KRAS-G12C/SOS=3 nM/40 nM, KRAS-WT and G12D/SOS=1 nM/40 nM, KRAS-G12V/SOS=1.25 nM/160 nM, KRAS-G13D/SOS=1.25 nM/0 nM, HRAS and NRAS=1.25 nM/40 nM.
(§5) The time-resolved fluorescence resonance energy transfer (TR-FRET) signal is measured on an Envision (PerkinElmer) plate reader: Excitation filter=340 nm; emission1=495 nm; emission2=520 nm; dichroic mirror=D400/D505; delay time=[…]. The signal of each well is determined as the ratio of the emission at 520 nm to that at 495 nm. Percent effect of each well is determined after normalization to control wells containing DMSO (no effect) or a saturating concentration of inhibitor (max effect). The apparent effect as a function of compound concentration is fit to a four-parameter logistic equation.
(§6) For Example No. 14, nucleotide exchange assays for KRAS G12D, WT, G12C, and G12V were performed according to Procedure B. All the other compounds were tested according to Procedure A.

KRAS WT = KRAS WT (Homo sapiens, UniProt P01116); assay: SOS-catalyzed nucleotide exchange assay, KRAS WT (Procedure A); format: biochemical; details: GNE
From the text: as §1, §2, §3, §4, §5, §6

KRAS G12V = KRAS G12V (Homo sapiens, UniProt P01116, G12V); assay: SOS-catalyzed nucleotide exchange assay, KRAS G12V (Procedure A); format: biochemical; details: GNE
From the text: as §1, §2, §3, §4, §5, §6

AsPC-1 cells = target: T1, AsPC-1 cells (Homo sapiens, UniProt P01116, G12D); assay: Cellular phospho-ERK assay, AsPC-1 cells (KRAS G12D); format: cell-based; details: 2 hours, read-out: AsPC1 pERK IC50
T1 construct: p-ERK/total ERK AlphaSureFire read-out
Experimental: Procedure for Cellular Phospho-ERK Assay in KRAS Wild Type and Mutant (G12D, G12V) Cell Lines
PANC08.13 cells (ATCC® CRL-2551™), containing homozygous KRAS-G12D activating mutation, were cultured in growth medium made of RPMI1640-GlutaMAX™-I (ThermoFisher Scientific 61870) containing 15% heat inactivated fetal bovine serum (ThermoFisher Scientific 10091148)). AsPC-1 cells (ATCC® CRL-1682™), containing homozygous KRAS-G12D activating mutation, were cultured in T150 flask in growth medium (RPMI medium 1640-GlutaMAX™-I (ThermoFisher Scientific 61870) containing 10% fetal bovine serum (ThermoFisher Scientific 10091148)).
Cells for the assay were harvested in growth medium after TrypLE (ThermoFisher scientific 12604021) digestion and were seeded in a 384-well collagen coated cell culture plate (Corning 356702) at a density of 10,000-15,000 cells/20 μL/well, and incubated at 37° C., 5% CO2 overnight. The compound (with 10 mM stock concentration) dose-response titrations were prepared [30 μM final ERK detection assay concentration and 1:3 dilutions, 10-point dose response] and appropriate amounts (270 nL) of test compounds were dispensed in a 384-well intermediate plate using an Echo 550 liquid handler. 30 μL/well of RPMI medium 1640-GlutaMAX™-I was added to the intermediate plate and the contents of the intermediate plate (10 μL/well) were then transferred to the 384-well collagen coated cell culture plate, which was incubated at 37° C., 5% CO2 for 2 hours. After removal of medium from the collagen coated cell culture plate, cells were lysed in lysis buffer from Alpha SureFire® Ultra™ Multiplex p-ERK and total ERK assay kit (PerkinElmer MPSU-PTERK) containing Halt™ Protease and Phosphatase inhibitor cocktail (ThermoFisher Scientific 78446) at room temperature with constant shaking at 300 rpm for 30 minutes. The cell lysates were then transferred to an OptiPlate-384 plate (PerkinElmer 6005620), and the phosphorylation of ERK (p-ERK) and total ERK levels were detected by Alpha SureFire® Ultra™ Multiplex p-EEK kit and total ERK assay kit (PerkinElmer MPSU-PTERK) following the manufacturer's protocol. Assay plates were read on a EnVision Multimode Plate Reader (PerkinElmer), and the ratio of p-ERK vs. total ERK in each well was used as the final readout. Dose response curves were analyzed using a 4-parameter logistic model to calculate IC50 values using Spotfire software.

KRAS WT, sequence (P01116 with tags, fused parts or gaps isoform P01116-2): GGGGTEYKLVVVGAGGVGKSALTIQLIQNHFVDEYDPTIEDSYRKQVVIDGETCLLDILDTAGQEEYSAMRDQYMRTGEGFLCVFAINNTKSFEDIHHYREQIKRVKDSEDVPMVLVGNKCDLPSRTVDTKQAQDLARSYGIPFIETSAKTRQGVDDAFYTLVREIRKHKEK
KRAS G12V, sequence (P01116 with tags, fused parts or gaps isoform P01116-2 G12V): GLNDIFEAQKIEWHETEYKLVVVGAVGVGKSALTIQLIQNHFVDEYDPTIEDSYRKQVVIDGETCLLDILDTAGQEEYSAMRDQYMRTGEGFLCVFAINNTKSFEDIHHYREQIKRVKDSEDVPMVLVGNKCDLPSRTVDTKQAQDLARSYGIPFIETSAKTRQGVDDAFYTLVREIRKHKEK
T1 sequence (P01116 1-188 isoform P01116-2 G12D): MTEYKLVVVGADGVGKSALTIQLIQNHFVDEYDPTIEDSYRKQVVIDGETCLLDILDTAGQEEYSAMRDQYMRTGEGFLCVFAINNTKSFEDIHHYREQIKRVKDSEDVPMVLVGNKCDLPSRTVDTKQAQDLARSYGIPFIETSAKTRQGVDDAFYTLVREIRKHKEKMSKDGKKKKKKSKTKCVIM
KRAS G12D, sequence (P01116 with tags, fused parts or gaps isoform P01116-2 G12D): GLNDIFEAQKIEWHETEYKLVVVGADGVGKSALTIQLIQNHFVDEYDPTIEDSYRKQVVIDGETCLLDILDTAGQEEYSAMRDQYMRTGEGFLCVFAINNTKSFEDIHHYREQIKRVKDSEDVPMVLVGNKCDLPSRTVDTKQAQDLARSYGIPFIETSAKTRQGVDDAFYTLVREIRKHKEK

Cc1cc2[nH]ncc2c(-c2nccc3c2sc2nc(OCC4CS(=O)(=O)C4)nc(N4C[C@H]5CC[C@@H](C4)N5)c23)c1C(F)(F)F [Ex-27, 3-(((4-((1R,5S)-3,8-diazabicyclo[3.2.1]octan-3-yl)-8-(6-methy1-5-(trifluoromethyl)-1H-indazol-4-yl)pyrido[4′,3′:4,5]thieno[2,3-d]pyrimidin-2-yl)oxy)methyl)thietane 1,1-dioxide]
pIC50 (KRAS G12D): 5.45
pIC50 (KRAS WT): < 4.95
pIC50 (KRAS G12V): < 4.95
pIC50 (AsPC-1 cells): 5.24

C#Cc1c(F)sc2cc3[nH]ncc3c(-c3nccc4c3sc3nc(OC[C@@]56CCCN5C[C@H](F)C6)nc(N5C[C@H]6CC[C@@H](C5)N6)c34)c12 [Ex-82, 4-((1R,5S)-3,8-diazabicyclo[3.2.1]oc-tan-3-yl)-8-(5-ethynyl-6-fluoro-1H-thieno[3,2-f]indazol-4-yl)-2-(((2R,7aS)-2-fluorotetrahydro-1H-pyrrolizin-7a(5H)-yl)methoxy)pyri-do[4′,3′:4,5]thi-eno[2,3-d]pyrimidine]
pIC50 (KRAS G12D): 8.71
pIC50 (KRAS WT): 7.90
pIC50 (KRAS G12V): 7.79
pIC50 (AsPC-1 cells): 8.20

C#Cc1c(F)ccc2cc3[nH]ncc3c(-c3nccc4c3sc3nc(OC[C@@]56CCCN5C/C(=C\F)C6)nc(N5C[C@H]6CC[C@@H](C5)N6)c34)c12 [Ex-89, 4-((1R,5S)-3,8-diazabicyclo[3.2.1]octan-3-yl)-8-(5-ethynyl-6-fluoro-1H-benzo[f]indazol-4-yl)-2-(((S,Z)-2-(fluoromethylene)tetrahydro-1H-pyrrolizin-7a(5H)-yl)methoxy)pyrido[4′,3′:4,5]thieno[2,3-d]pyrimidine]
pIC50 (KRAS G12D): 8.78
pIC50 (KRAS WT): 7.48
pIC50 (KRAS G12V): 7.31
pIC50 (AsPC-1 cells): 8.09

C#Cc1c(F)ccc2cc3[nH]ncc3c(-c3nccc4c3sc3nc(OCC5(CN6CC[C@@H](F)C6)CC5)nc(N5C[C@H]6CC[C@@H](C5)N6)c34)c12 [Ex-94, 4-((1R,5S)-3,8-diazabicyclo[3.2.1]octan-3-yl)-8-(5-ethynyl-6-fluoro-1H-benzo[f]indazol-4-yl)-2-((1-(((R)-3-fluoropyrrolidin-1-yl)methyl)cyclopropyl)methoxy)pyrido[4′,3′: 4,5]thieno[2,3-d]pyrimidine]
pIC50 (KRAS G12D): 8.52
pIC50 (KRAS WT): 6.07
pIC50 (KRAS G12V): 5.71
pIC50 (AsPC-1 cells): 7.07

C#Cc1csc2cc3[nH]ncc3c(-c3nccc4c3sc3nc(OC[C@]5(CN6CC7(C6)CC(F)(F)C7)CC5(F)F)nc(N5C[C@H]6CC[C@@H](C5)N6)c34)c12 [Ex-83, 4-((1R,5S)-3,8-diazabicyclo[3.2.1]octan-3-yl)-2-(((R)-1-((6,6-difluoro-2-azaspiro[3.3]heptan-2-yl)methyl)-2,2-difluorocyclopropyl)methoxy)-8-(5-ethynyl-1H-thieno[3,2-f]indazol-4-yl)pyrido[4′,3′:4,5]thieno[2,3-d]pyrimidine]
pIC50 (KRAS G12D): 8.84
pIC50 (KRAS WT): 6.37
pIC50 (KRAS G12V): 6.15
pIC50 (AsPC-1 cells): 7.37

C#Cc1c(F)ccc2cc3[nH]ncc3c(-c3nccc4c3sc3nc(OC[C@]5(CN6CCC(COC)CC6)CC5(F)F)nc(N5C[C@H]6CC[C@@H](C5)N6)c34)c12 [Ex-111, 4-((1R,5S)-3,8-diazabicyclo[3.2.1]octan-3-yl)-2-(((R)-2,2-difluoro-1-((4-(methoxymethyl)piperidin-1-yl)methyl)cyclopropyl)methoxy)-8-(5-ethynyl-6-fluoro-1H-benzo[f]indazol-4-yl)pyrido[4′,3′:4,5]thieno[2,3-d]pyrimidine]
pIC50 (KRAS G12D): 8.27
pIC50 (KRAS WT): 5.76
pIC50 (KRAS G12V): 5.36
pIC50 (AsPC-1 cells): 6.77

Cc1cc2[nH]ncc2c(-c2nccc3c2sc2nc(OCC4CCS(=O)(=O)C4)nc(N4C[C@H]5CC[C@@H](C4)N5)c23)c1C(F)(F)F (stereo partly drawn) [Ex-30, 3-(((4-((1R,5S)-3,8-diazabicyclo[3.2.1]octan-3-yl)-8-(6-methyl-5-(trifluoromethyl)-1H-indazol-4-yl)pyrido[4′,3′:4,5]thieno[2,3-d]pyrimidin-2-yl)oxy)methyl)tetrahydrothio-phene 1,1-dioxide]
pIC50 (KRAS G12D): 5.58
pIC50 (KRAS WT): < 4.95
pIC50 (KRAS G12V): < 4.95
pIC50 (AsPC-1 cells): < 4.52

Cc1cc2[nH]ncc2c(-c2nccc3c2sc2nc(OC[C@@]45CCCN4C[C@H](F)C5)nc(N4[C@@H]5CC[C@H]4CN(CC(C)O)C5)c23)c1C(F)(F)F (stereo partly shown) [Ex-112]
pIC50 (KRAS G12D): 5.17
pIC50 (KRAS WT): < 4.96
pIC50 (KRAS G12V): < 4.96
pIC50 (AsPC-1 cells): 4.83

F[C@H]1CN2CCC[C@@]2(COc2nc(N3C[C@H]4CC[C@@H](C3)N4)c3c(n2)sc2c(-c4c(C5(F)CC5)c(C(F)(F)F)cc5[nH]ncc45)nccc23)C1 [Ex-79, 4-((1R,5S)-3,8-diazabicyclo[3.2.1]octan-3-yl)-8-(5-(1-fluorocyclopropyl)-6-(trifluoromethyl)-1H-indazol-4-yl)-2-(((2R,7aS)-2-fluorotetrahydro-1H-pyrrolizin-7a(5H)-yl)methoxy)pyrido[4′,3′:4,5]thieno[2,3-d]pyrimidine]
pIC50 (KRAS G12D): 7.91
pIC50 (KRAS WT): 5.32
pIC50 (KRAS G12V): 5.35
pIC50 (AsPC-1 cells): 6.21

C#Cc1cc(F)cc2cc3[nH]ncc3c(-c3nccc4c3sc3nc(OC[C@@]56CCCN5C[C@H](F)C6)nc(N5C[C@H]6CC[C@@H](C5)N6)c34)c12 [Ex-86, 4-((1R,5S)-3,8-diazabicyclo[3.2.1]octan-3-yl)-8-(5-ethynyl-7-fluoro-1H-benzo[f]indazol-4-yl)-2-(((2R,7aS)-2-fluorotetrahydro-1H-pyrrolizin-7a(5H)-yl)methoxy)pyrido[4′,3′:4,5]thieno[2,3-d]pyrimidine]
pIC50 (KRAS G12D): 8.48
pIC50 (KRAS WT): 6.27
pIC50 (KRAS G12V): 5.91
pIC50 (AsPC-1 cells): 7.26
